Measured values from patent publication US20130317027A1, “COMPOUNDS AND THERAPEUTIC USES THEREOF” (Myrexis, Inc, priority 2010, published 2013).

Tests used:
HCT116 cells [1] = experiment: Synergy between Nampt inhibitor and chemotherapeutic compounds (MacSynergy II, CellTiter-Glo); assay type: cell-based; conditions: combined with a known Nampt inhibitor
Description: Experiments were conducted in HCT116 cells. […] Prior to combinations of compounds, dose curves of cells treated with a single compound were generated to define relevant compound doses to use in the combination analysis. Typically, relevant doses were those found in the inflection portion of a sigmoidal dose-response curve. Utilizing these optimized conditions, cells were dosed with Nampt inhibitor plus the test compound at a variety of concentrations of each, and viability was assessed using CellTiter-Glo. Data was processed using the MacSynergy™ II algorithm, which subtracted from actual data a prediction of compound additivity.

Human NAMPT = target: T1, Human NAMPT (Homo sapiens, UniProt P43490); experiment: Nampt Activity Assay (coupled enzyme, resazurin/diaphorase fluorometric detection of NADH); assay type: biochemical; conditions: read-out: vitro IC50 (Nampt activity assay)
T1 construct: 6xHis (N); made in house; host or cells: E. coli BL21-AI
T1 sequence (P43490 whole entry): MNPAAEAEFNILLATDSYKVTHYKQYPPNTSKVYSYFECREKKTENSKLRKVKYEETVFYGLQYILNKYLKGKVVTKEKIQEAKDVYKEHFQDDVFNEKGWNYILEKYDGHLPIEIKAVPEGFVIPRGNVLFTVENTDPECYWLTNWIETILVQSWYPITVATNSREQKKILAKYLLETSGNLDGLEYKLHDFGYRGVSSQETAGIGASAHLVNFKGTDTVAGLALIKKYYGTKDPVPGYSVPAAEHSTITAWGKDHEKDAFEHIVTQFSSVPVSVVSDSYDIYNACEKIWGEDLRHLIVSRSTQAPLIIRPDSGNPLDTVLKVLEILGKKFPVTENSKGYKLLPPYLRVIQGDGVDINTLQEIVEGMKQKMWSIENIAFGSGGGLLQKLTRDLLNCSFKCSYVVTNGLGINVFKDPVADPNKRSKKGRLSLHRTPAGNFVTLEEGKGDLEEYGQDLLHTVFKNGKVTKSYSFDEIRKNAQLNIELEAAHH
Source text: 5-phosphoribosyl-1-pyrophosphate (PRPP), ATP, NaM, NaMN, Triton X-100, UDP-glucose and diaphorase were purchased from Sigma-Aldrich, St. Louis, Mo. Human NAMPT, NMN adenylyltransferase (NMNAT1) and UDP-glucose dehydrogenase (UGDH) encoding DNAs were each inserted into a house-modified E. Coli expression vector such that the expressed proteins carried an N-terminal 6×His tag. The His-tagged proteins were expressed in the BL21-AI E. Coli expression strain (Invitrogen Corporation, Carlsbad, Calif.) following induction by 0.2% L-arabinose and 0.5 mM IPTG at 30° C. Proteins were purified on Ni-NTA resin (Qiagen, Germantown, Md.).
The assay for Nampt catalytic activity was constructed based on a previously published coupled enzyme fluorometric technique, which employs NADH as ultimate analyte (Revollo, J. R. et al. Biol. Chem. 279, 50754-50763 (2004)). A substantial improvement in assay sensitivity was achieved by switching from direct detection to a resazurin/diaphorase-based fluorometric detection system for NADH (Guilbault, G. G., and Kramer, D. N. Anal. Chem. 37, 1219-1221 (1965)). The standard inhibition analyses were performed in a real-time mode in 96-well microtiter plates using 50 mM Tris-HCl, pH 7.5, 1% DMSO (v/v), 0.01% Triton X-100 (v/v), 10 mM MgCl2, 2 mM ATP, […], […], […], as well as the following detection reagents: 5 nM Nmnat, 200 nM Ugdh, 200 µM UDP-glucose, 0.02 U/mL diaphorase and […]. Incubation of samples at room temperature for up to 3 hours was followed by quantification of fluorescence intensities at excitation and emission wavelengths of 510 nm and 590 nm, respectively, using Gemini XS plate reader (Molecular Devices, Sunnyvale, Calif.). The counter-assay intended to disqualify false positives, such as inhibitors of detection enzymes or fluorescence quenchers, was carried out essentially as described above with an exception that 1 μM NaMN was substituted for Nampt.

[2] = Cytotoxicity Assay (CellTiter-Glo, 72 hour drug incubation); conditions: human, HCT116 cells
Description: (§1) HCT116 cells were seeded in 96 well plates (Greiner Bio-One, Monroe, N.C.) and allowed to settle overnight. Test compound dissolved in dimethyl sulfoxide (DMSO) was added and drug incubation proceeded for 72 hours. […] After 72 hour, 50 L of CellTiter-Glo Luminescent Cell Viability Assay reagent (Promega Corporation, Madison, Wis.) was added to cells in 200 L of cellular media. After a proscribed incubation period, luminescence was measured using a TopCount NXT plate reader (PerkinElmer, Waltham, Mass.).

PARP = conditions: in vitro and in vivo models of cerebral ischemia; cited from earlier work
[3] = test system: murine gastric and bladder tumors; conditions: immune-competent mice; cited from earlier work
PARP in HCT116 cells = experiment: PARP activation by 5-FU; assay type: cell-based
Source text: Kim, M. Y. et al. Genes & Development 19:1951-67 (2005)). […] TS inactivation is know to cause an imbalance in nucleotide pools that subsequently promotes aberrant uracil incorporation into DNA (Berger S. H. et al. Biochemical Pharmacology 76:697-706 (2008)).

HCT116 cells [4] = test system: HCT116 cells
Description: as §1

Row | Compound | IC50 (Human NAMPT) [nM] | IC50 at 72 h [2] [nM] | also measured
1 | O=C(c1cc(Cc2n[nH]c(=O)c3ccccc23)ccc1F)N1CCN(C(=O)C2CC2)CC1 [olaparib] | – | – | drug interaction (synergy, additivity, or antagonism) with Nampt inhibitor (HCT116 cells [1]): antagonism
2 | O=C(NCc1cccnc1)Nc1ccc(COc2cc(C(F)(F)F)ccc2Cl)cc1 [Example 164, 1-(4-{[2-Chloro-5-(trifluoromethyl)phenoxy]methyl}phenyl)-3-(pyridin-3-ylmethyl)urea] | ~1.8 | ~74 | –
3 | O=c1[nH]c(CCCN2CC=C(c3ccccc3)CC2)nc2cccc(Cl)c12 [FR247304] | – | – | neuronal damage (PARP): attenuate neuronal damage
4 | O=C(NCc1cccnc1)Nc1ccc(NS(=O)(=O)c2cc(C(=O)NCC3CCCN3)c(Cl)cc2F)cc1 (centres unmarked) [Example 831, 2-Chloro-4-fluoro-5-[(4-{[(pyridin-3-ylmethyl)carbamoyl]amino}phenyl)sulfamoyl]-N-(pyrrolidin-2-ylmethyl)benzamide] | ~10 | – | –
5 | Oc1cccc(-c2nc(N3CCOCC3)c3oc4ncccc4c3n2)c1 [PI-103] | – | – | drug interaction (synergy, additivity, or antagonism) with Nampt inhibitor (HCT116 cells [1]): synergized
6 | N#C/N=C(\NCCOc1ccccc1-c1ccccc1)Nc1cccnc1 [Example 641, 1-[2-(Biphenyl-2-yloxy)ethyl]-2-cyano-3-pyridin-3-ylguanidine] | ~1300 | ~3200 | –
7 | O=C(/C=C/c1cccnc1)NCCCCC1CCN(C(=O)c2ccccc2)CC1 [AP0866] | – | – | effect on tumor growth, co-administration with L-1MT [3]: additive inhibitory effect
8 | N#C/N=C(/NCC(=O)NCCOc1ccccc1-c1ccccc1)Nc1ccncc1 [Example 634, (Z)-N-[2-(Biphenyl-2-yloxy)ethyl]-N~2~- [(cyanoamino)(pyridin-4-ylamino)methylidene] glycinamide] | ~520 | ~5000 | –
9 | COS(C)(=O)=O [methyl methanesulfonate (MMS), methyl methanesulfonate] | – | – | drug interaction (synergy, additivity, or antagonism) with Nampt inhibitor (HCT116 cells [1]): synergy
10 | O=c1[nH]cc(F)c(=O)[nH]1 [5-fluorouracil (5-FU), 5-fluorouracil] | – | – | PARP activation (PARP in HCT116 cells): PARP activator
11 | 4-Fluoro-2-{2-[3- (morpholin-4- yl)azetidin-1- yl]pyridin-4-yl}- N-(4-{[(pyridin- 3-ylmethyl) carbamoyl] amino}phenyl) benzenesulfon- amide [Example 762] | – | – | IC50 (HCT116 cells [4]): ~2.2 nM
12 | CN(C)CCOc1cccc(-c2ccccc2CCOc2ccc(NC(=O)NCc3cccnc3)cc2)c1 [Example 797, 1-[4-(2-{3′-[2-(Dimethylamino)ethoxy]biphenyl-2-yl}ethoxy)phenyl]-3-(pyridin-3-ylmethyl)urea] | ~10 | – | –
13 | O=C(NCc1cccnc1)Nc1ccc(OCCc2ccc(F)cc2-c2ccnc(N3CCNCC3)c2)cc1 [Example 759, 1-[4-(2-{4-Fluoro-2-[2-(piperazin-1-yl)pyridin-4-yl]phenyl}ethoxy)phenyl]-3-(pyridin-3-ylmethyl)urea] | – | ~1.9 | –
14 | O=C(NCCCNS(=O)(=O)c1ccccc1-c1ccccc1)NCc1cccnc1 [Example 152, N-(3-{[(pyridin-3-ylmethyl)carbamoyl]amino}propyl)biphenyl-2-sulfonamide] | ~2 | ~55 | –
15 | COc1cc(N/C(=N/C#N)NCc2ccc(NS(=O)(=O)c3ccccc3-c3ccccc3)cc2)ccn1 [Example 613, N-{4-[({(Z)-(Cyanoamino)[(2-methoxypyridin-4-yl)amino]methylidene}amino)methyl]phenyl} biphenyl-2-sulfonamide] | ~11 | ~2600 | –
16 | O=C(NCc1cccnc1)Nc1ccc(C[S+]([O-])c2ccccc2-c2ccccc2)cc1 (centres unmarked) [Example 210, 1-{4-[(biphenyl-2-ylsulfinyl)methyl]phenyl}-3-(pyridin-3-ylmethyl)urea] | ~6.3 | ~39 | –
17 | N#Cc1ccc(S(=O)(=O)Nc2ccc(NC(=O)NCc3cccnc3)cc2)c(Cl)c1 [Example 580, 2-Chloro-4-cyano-N-(4-{[(pyridin-3-ylmethyl)carbamoyl]amino}phenyl) benzenesulfonamide] | ~0.8 | ~100 | –
18 | N#C/N=C(/NCc1ccc(COc2ccccc2-c2ccccc2)cc1)Nc1ccncc1 [Example 605, 1-{4-[(Biphenyl-2-yloxy)methyl]benzyl}-2-cyano-3-pyridin-4-ylguanidine] | ~2.4 | ~1.1 | –
19 | Cc1nc2ccc(CN(C)c3ccc(C(=O)N[C@@H](CCC(=O)O)C(=O)O)s3)cc2c(=O)[nH]1 [raltitrexed] | – | – | drug interaction (synergy, additivity, or antagonism) with Nampt inhibitor (HCT116 cells [1]): synergized
20 | C[C@H](Oc1ccccc1-c1ccccc1)c1nc(CNC(=O)NCc2cccnc2)cs1 [Example 363, 1-({2-[(1S)-1-(Biphenyl-2-yloxy)ethyl]-1,3-thiazol-4-yl}methyl)-3-(pyridin-3-ylmethyl)urea] | ~3.4 | ~290 | –
